These are literature values, as cited in patent US11541018B2 (priority 2016, dated 2023).

One may read the LogP as a log measure of how a compound divides between an organic and an aqueous phase.

The conditions of series [1]: active agent (base).
The conditions of series [2]: active agent (base). This is another data set of the same source.

As for ropinole, in series [1], the Water solubility was 133 mg/mL. For the same substance, in series [2], the LogP is 2.7.
